# Source: paper PMC11401813, “Grewiifopenes A–K, bioactive clerodane diterpenoids from Casearia grewiifolia Vent” (Natural Products and Bioprospecting, 2024)
# Like-named read-outs stand apart in the source and are kept apart here.
# How the values were obtained:
# [1] = system: MOLT-3 (acute lymphoblastic leukemia); experiment: Cytotoxicity, XTT method, MOLT-3; format: cell-based; conditions: Homo sapiens
# Procedure: (§1) The in vitro cytotoxicity assay toward a panel of human cancer cell lines of several clerodane diterpenoids has been well investigated. Thus, the isolates in adequate amounts were tested against MOLT-3 (acute lymphoblastic leukemia), HuCCA-1 (cholangiocarcinoma), HepG2 (hepatocellular carcinoma), A549 (lung adenocarcinoma), HeLa (cervical carcinoma), and MDA-MB-231 (triple negative breast cancer) cancer cell lines using the MTT and XTT methods. Doxorubicin and etoposide were used as positive controls.
# (§2) The MTT (3-(4,5-dimethylthiazol-2-yl)-2,5-diphenyltetrazolium bromide) assay was employed for the cytotoxic evaluation against five human cancer cell lines, including HepG2, A549, MDA-MB-231, HeLa, and HuCCA-1, while the XTT (2,3-bis-(2-methoxy-4-nitro-5-sulphenyl)-(2H)-tetrazolium-5-carboxanilide) method was used for MOLT-3 cancer cell.
# [2] = system: HepG2 (hepatocellular carcinoma); experiment: Cytotoxicity, MTT assay, HepG2; format: cell-based, human; conditions: for IC50: Homo sapiens
# Procedure: as §1, §2
# [3] = system: A549 (lung adenocarcinoma); experiment: Cytotoxicity, MTT assay, A549; format: cell-based, human; conditions: mean ± s.d. (n = 3); for IC50: Homo sapiens, A549, A549 cell line
# Procedure: as §1, §2
# [4] = system: MDA-MB-231 (triple negative breast cancer); experiment: Cytotoxicity, MTT assay, MDA-MB-231; format: cell-based, human
# Procedure: as §1, §2
# [5] = system: HuCCA-1 (cholangiocarcinoma); experiment: Cytotoxicity, MTT assay, HuCCA-1; format: cell-based, human; conditions: for IC50: Homo sapiens
# Procedure: as §1, §2
# [6] = system: MOLT-3, HuCCA-1, HepG2, A549, HeLa, and MDA-MB-231 cancer cell lines; experiment: Cytotoxicity toward panel of human cancer cell lines (MTT and XTT); format: cell-based; conditions: for IC50: Homo sapiens, read-out: IC50 range over the cancer cell line panel
# From the text: The in vitro cytotoxicity assay toward a panel of human cancer cell lines of several clerodane diterpenoids has been well investigated. […] Doxorubicin and etoposide were used as positive controls.
# [7] = system: Bacillus cereus (ATCC 11778); experiment: Antibacterial broth microdilution (MIC/MBC), B. cereus; format: cell-based; conditions: for MBC / MIC: Bacillus cereus, ATCC11778
# Procedure: (§3) In addition, the isolates were also evaluated for their antibacterial activity towards three strains including Bacillus cereus (ATCC 11778), Staphylococcus aureus (ATCC 6538) and Staphylococcus epidermidis (ATCC 12228) using penicillin G and gentamicin as the antibiotic controls (Table 5). […] Finally, the inhibitory activity of aromatase by using a CYP19 screening kit was investigated. The aromatase (also called estrogen synthase) is responsible for converting the non-aromatic ring A of androgens to estrogens, which are related to the proliferation of breast cancer cells.
# (§4) The tested strains, Staphylococcus aureus (S. aureus) ATCC6538, Staphylococcus epidermidis (S. epidermidis) ATCC12228, and Bacillus cereus (B. cereus) ATCC11778 were obtained from the American Type Culture Collection (ATCC).
# (§5) All tested species were grown on Mueller Hinton Agar (MHA) and incubated at 37 °C for 18–24 h. The bacterial colonies suspension in sterile normal saline was diluted until they reached a 1 × 10^6 CFC/mL concentration, which was then compared to the McFarland scale. This step provided a standard bacterial suspension (1 × 10^6 CFU/mL), which was used for the following assays.
# (§6) The broth microdilution technique was used for the MIC and MBC determination, which was expressed according to Clinical and Laboratory Standards Institute (CLSI) standard M07 guideline. The compounds were prepared as a stock solution by dissolving in dimethyl sulfoxide (DMSO) with the concentration ranging from 0.195 to 200 µg/mL. DMSO and penicillin G or gentamicin were used as normal and standard drug control. […] Three replicates were performed for each experiment.
# [8] = system: Staphylococcus epidermidis (ATCC 12228); experiment: Antibacterial broth microdilution (MIC/MBC), S. epidermidis; format: cell-based; conditions: ATCC12228
# Procedure: as §3, §4, §5, §6
# [9] = system: Staphylococcus aureus (ATCC 6538); experiment: Antibacterial broth microdilution (MIC/MBC), S. aureus; format: cell-based; conditions: ATCC6538
# Procedure: as §3, §4, §5, §6
# [10] = system: HeLa (cervical carcinoma); experiment: Cytotoxicity, MTT assay, HeLa; format: cell-based, human; conditions: for IC50: Homo sapiens, HeLa, read-out: IC50, HeLa
# Procedure: as §1, §2
# [11] = biological target: T1, aromatase (CYP19) (Homo sapiens, UniProt P11511); experiment: Aromatase (CYP19) inhibition assay; format: biochemical; conditions: for inhibition at 12.5 µM: at a concentration of 12.5 µM; for Aromatase inhibitory activity (in words): at the concentration up to 12.15 µM
# T1 construct: purchased
# T1 sequence (P11511 1-503): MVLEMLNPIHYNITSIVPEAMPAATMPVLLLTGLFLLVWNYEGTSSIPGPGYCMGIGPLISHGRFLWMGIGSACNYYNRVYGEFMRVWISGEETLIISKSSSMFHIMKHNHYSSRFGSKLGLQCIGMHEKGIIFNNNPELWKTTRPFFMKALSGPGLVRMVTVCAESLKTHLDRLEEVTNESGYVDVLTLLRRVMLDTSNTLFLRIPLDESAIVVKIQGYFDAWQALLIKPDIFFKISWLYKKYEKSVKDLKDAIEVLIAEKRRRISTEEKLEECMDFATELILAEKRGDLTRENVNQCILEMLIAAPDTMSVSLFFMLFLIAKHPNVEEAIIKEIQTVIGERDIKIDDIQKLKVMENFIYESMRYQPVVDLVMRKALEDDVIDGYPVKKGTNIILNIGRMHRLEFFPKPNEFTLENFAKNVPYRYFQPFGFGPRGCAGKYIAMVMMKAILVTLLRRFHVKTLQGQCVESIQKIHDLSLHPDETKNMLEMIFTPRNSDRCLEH
# Procedure: as §3
# The aromatase assay used a method previously designed by Stresser and co-workers.
# [12] = MOLT-3 cell line, XTT, mean ± s.d. (n = 3), read-out: IC50, MOLT-3
# [13] = HepG2, HepG2 cell line, MTT, mean ± s.d. (n = 3), read-out: IC50, HepG2
# [14] = Homo sapiens, MDA-MB-231, MDA-MB-231 cell line, MTT, mean ± s.d. (n = 3), read-out: IC50, MDA-MB-231
# [15] = MDA-MB-231 cell line, MTT, mean ± s.d. (n = 3), read-out: IC50, MDA-MB-231
# [16] = HuCC-A1, HuCCA-1 cell line, MTT, mean ± s.d. (n = 3), read-out: IC50, HuCCA-1
# [17] = range over all cell lines tested
# [18] = HeLa cell line, MTT, mean ± s.d. (n = 3)
MIC [7],MIC [8],MIC [9],inhibition at 12.5 µM [11],Aromatase inhibitory activity (in words) [11],Structure (SMILES),"IC50 [1, 12]","IC50 [2, 13]",IC50 [3],"IC50 [4, 14]","IC50 [5, 16]",MBC [7],MBC [8],MBC [9],"IC50 [10, 18]",further results
25 µg/mL,> 200 µg/mL,> 200 µg/mL,,,"C=CC(=C)CC[C@]1(C)[C@H](C)C[C@H](O)[C@@]23C(=C[C@H](OC(=O)CC(C)C)C[C@@H]12)[C@@H](OC(C)=O)O[C@H]3OC(C)=O [Compound 8, corymbulosin X]",1200 ± 200 nM,2400 ± 100 nM,600 ± 100 nM,2000 to 2200 nM,400 ± 100 nM,50 µg/mL,> 200 µg/mL,> 200 µg/mL,1800 ± 200 nM,"IC50 [4, 15]: 2200 ± 100 nM; IC50 [6, 17]: 300 to 2900 nM"
> 200 µg/mL,> 200 µg/mL,> 200 µg/mL,15%,did not show activity,"C=CC(=C)CC[C@]1(C)[C@H](C)[C@@H](OC(C)=O)[C@H](OC(C)=O)[C@@]23C(=C[C@H](OC(=O)CC(C)C)C[C@@H]12)[C@@H](OC(C)=O)O[C@H]3OC(C)=O [Compound 3, Grewiifopene C]",2700 ± 300 nM,13200 ± 500 nM,5100 ± 1100 nM,8400 ± 100 nM,3900 ± 200 nM,> 200 µg/mL,> 200 µg/mL,> 200 µg/mL,5300 ± 100 nM,
> 200 µg/mL,> 200 µg/mL,> 200 µg/mL,0%,did not show activity,"COC1=CC(=O)C=C(OC)C1(O)CC(C)=O [Compound 20, 4-acetonyl-3,5-dimethoxy-p-quinol]",10000 ± 3500 nM,122000 ± 11300 nM,125000 ± 4700 nM,24400 ± 1200 nM,111000 ± 2200 nM,> 200 µg/mL,> 200 µg/mL,> 200 µg/mL,132000 ± 3800 nM,
,,,,,"C=CC(C)=CCC1(C)C(C)CC(O)C23C(=CC(OC(=O)C(C)CC)CC12)C(OC(C)=O)OC3OC(C)=O (stereo not shown) [Compound 16, Grewiifopene I]",,,,,,,,,,"IC50 ([1]; MOLT-3, read-out: IC50, MOLT-3): 1200 ± 200 nM; IC50 ([2]; HepG2, read-out: IC50, HepG2): 2900 nM; IC50 ([4]; Homo sapiens, MDA-MB-231, read-out: IC50, MDA-MB-231): 2000 ± 100 nM; IC50 ([5]; HuCC-A1, read-out: IC50, HuCCA-1): 700 ± 20 nM; IC50 [6]: 300 to 2900 nM; IC50 [10]: 800 ± 100 nM"
> 200 µg/mL,> 200 µg/mL,> 200 µg/mL,17%,did not show activity,"COc1cc([C@@H]2OC[C@@H]3[C@H]2CO[C@H]3c2cc(OC)c(O)c(OC)c2)cc(OC)c1O [Compound 19, (−)-syringaresinol]",75300 ± 4900 nM,,,,,> 200 µg/mL,> 200 µg/mL,> 200 µg/mL,,"IC50, HepG2 ([2]; HepG2 cell line, MTT, mean ± s.d. (n = 3)): I (Inactive for cytotoxicity with < 50% inhibition at a concentration of 50 µg/mL); IC50, A549 ([3]; A549 cell line): I (Inactive for cytotoxicity with < 50% inhibition at a concentration of 50 µg/mL); IC50, MDA-MB-231 ([4]; MDA-MB-231 cell line, MTT, mean ± s.d. (n = 3)): I (Inactive for cytotoxicity with < 50% inhibition at a concentration of 50 µg/mL); IC50, HuCCA-1 ([5]; HuCCA-1 cell line, MTT, mean ± s.d. (n = 3)): I (Inactive for cytotoxicity with < 50% inhibition at a concentration of 50 µg/mL); Cytotoxicity against all cell lines (in words) ([6]; even at 50 µg/mL): inactive; IC50, HeLa [10, 18]: I (Inactive for cytotoxicity with < 50% inhibition at a concentration of 50 µg/mL)"
12.5 µg/mL,> 200 µg/mL,> 200 µg/mL,25%,did not show activity,"C=CC(=C)CC[C@]1(C)[C@H](C)C[C@H](OC)[C@@]23C(=C[C@H](OC(=O)[C@@H](C)CC)C[C@@H]12)[C@@H](OC)O[C@H]3OC(C)=O [Compound 11, balanspene F]",5000 ± 1700 nM,14300 ± 1500 nM,3000 ± 400 nM,11400 ± 500 nM,3300 ± 400 nM,25 µg/mL,> 200 µg/mL,> 200 µg/mL,10300 ± 500 nM,"MBC, B. cereus (ATCC 11778) [7]: 25 µg/mL"

Structure (SMILES),MIC [7],MIC [8],MIC [9],inhibition at 12.5 µM [11],Aromatase inhibitory activity (in words) [11],"IC50 [1, 12]","IC50 [2, 13]",IC50 [3],"IC50 [4, 14]","IC50 [5, 16]",MBC [7],MBC [8],MBC [9],"IC50 [10, 18]",further results
"C=CC(=C)CC[C@]1(C)[C@H](C)C[C@H](O)[C@@]23C(=C[C@H](OC(=O)[C@@H](C)CC)C[C@@H]12)[C@@H](OC(C)=O)O[C@H]3OC(C)=O [Compound 7, isocaseamembrin E]",6.25 µg/mL,100 µg/mL,25 µg/mL,0%,did not show activity,1400 ± 200 nM,1900 ± 400 nM,300 ± 20 nM,2000 to 2200 nM,700 ± 100 nM,> 200 µg/mL,> 200 µg/mL,50 µg/mL,900 ± 100 nM,"IC50 [4, 15]: 2000 ± 200 nM; IC50 [6, 17]: 300 to 2900 nM"
